# Experimental data published in US6734199B1, “Substituted benzylthiazolidine-2, 4-dione derivatives” (Kyorin Pharmaceutical Co., Ltd., priority 1999, dated 2004).
# Like-named read-outs stand apart in the source and are kept apart here.
# Columns and labels:
# [1] = target: T1, human type PPAR α ligand-binding domain fused with yeast transcription factor DNA-binding domain (Homo sapiens, UniProt Q07869); assay: Test of transactivation on peroxisome proliferator-activated receptor α (GAL4 DNA-binding domain/PPAR ligand-binding domain reporter in CHO cells)
# T1 sequence (Q07869 239-466 limits assumed): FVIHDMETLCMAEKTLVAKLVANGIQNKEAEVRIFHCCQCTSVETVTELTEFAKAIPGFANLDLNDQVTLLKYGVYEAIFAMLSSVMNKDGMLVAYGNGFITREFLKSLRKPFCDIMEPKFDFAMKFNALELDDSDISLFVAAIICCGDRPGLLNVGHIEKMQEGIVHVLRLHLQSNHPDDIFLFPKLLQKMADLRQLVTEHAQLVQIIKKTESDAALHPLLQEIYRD
# Method: (§1) Test of Transactivation on Peroxisome Proliferator-activated Receptors α and γ
# (§2) After 24 hours, CAT activity and β-galactosidase activity were measured.
# [2] = target: T2, human type PPAR γ ligand-binding domain fused with yeast transcription factor DNA-binding domain (Homo sapiens, UniProt P37231); assay: Test of transactivation on peroxisome proliferator-activated receptor γ (GAL4 DNA-binding domain/PPAR ligand-binding domain reporter in CHO cells)
# T2 sequence (P37231 238-503 limits assumed): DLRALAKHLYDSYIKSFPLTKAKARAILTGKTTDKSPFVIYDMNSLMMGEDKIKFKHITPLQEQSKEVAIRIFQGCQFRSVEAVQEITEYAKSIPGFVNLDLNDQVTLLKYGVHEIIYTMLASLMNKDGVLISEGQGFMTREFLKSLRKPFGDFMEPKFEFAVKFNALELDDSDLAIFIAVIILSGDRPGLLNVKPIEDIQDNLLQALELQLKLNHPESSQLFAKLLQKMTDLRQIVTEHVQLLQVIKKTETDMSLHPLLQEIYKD
# Method: as §1, §2
Structure (SMILES),melting point,"EC50 ([1]; read-out: Transactivation action PPARα EC50, CHO cells, 24 hours, CAT activity with β-galactosidase internal standard)",EC50 [1],EC50 [2]
COc1ccc(CC2SC(=O)NC2=O)cc1C(=O)NCc1ccc(Oc2ccccc2)cc1 (stereo not drawn) (hydrate or solvate) [Example 3],87 to 89 °C,–,–,–
"CCCCC/C=C\C/C=C\C=C\[C@@H](O)C/C=C\CCCC(=O)O [(8S)-HETE, reference compound]",–,1300 nM,–,–
COc1ccc(CC2SC(=O)NC2=O)cc1C(=O)NCc1ccc(OCc2ccccc2)cc1 (stereo not drawn) [Example 1],131 to 132.5 °C,–,440 nM,–
"COc1ccc(CC2SC(=O)NC2=O)cc1C(=O)NCc1ccc(-c2ccccc2)cc1 (stereo not drawn) [Example 2, N-[(Biphenyl-4-yl)Methyl]-5-[(2.4-Dioxothiazolidin-5-yl)Methyl]-2-Methloybenzamide]",170.5 to 172 °C,–,630 nM,6800 nM
COc1ccc(CC2SC(=O)NC2=O)cc1C(=O)NCc1ccc(Oc2ccccc2)cc1 (stereo not drawn) [Example 3],–,–,240 nM,240 nM
